Laboratory results reported in patent US8367357B2, “Two secretory luciferases” (National Institute of Advanced Industrial Science and …, priority 2006, dated 2013).

Tests used:
[1] = residual activity / half life of coelenterazine in solutions with or without antioxidant; format: physicochemical; details: 10 μM coelenterazine, 0.1M Tris-HCl pH 7.4/0.3 M Sodium ascorbate vs NaCl, Na2SO3, Thiourea solutions
Method: The following four solutions were prepared, coelenterazine was dissolved at a final concentration of 10 μM, and the residual activity of coelenterazine was examined to determine a half life. In FIG. 7, the half life is shown in the solution of (1) 0.1M Tris-HCl pH 7.4/0.3 M NaCl, (2) 0.1M Tris-HCl pH 7.4/0.3 M Sodium ascorbate, (3) 0.1M Tris-HCl pH 7.4/0.2 M Na2SO3 or (4) 0.1M Tris-HCl pH 7.4/0.2 M Thiourea. […] It is desirable to add sodium ascorbate in the dual reporter assay.

[2] = self-luminescence activity of coelenterazine in 10% FBS solution; format: physicochemical; details: 10 μM or 100 μM coelenterazine, 10% FBS medium, with sodium ascorbate salt solution
Method: The following two solutions were prepared, coelenterazine was dissolved at a final concentration of 10 μM or 100 μM, the solution was mixed with the medium for animal cells (solution containing 10% FBS), and the luminescence for 10 seconds was measured as the background. […] The luminescence activity (RLU: relative light unit) was measured, the ratio of its actually measured value to the self-luminescence was calculated and correctively shown in FIG. 8.

copepod luciferase = assay: ratio of luminescence to self-luminescence by copepod luciferase; format: biochemical; details: 10 μM or 100 μM coelenterazine, copepod luciferase medium with 10% FBS, with sodium ascorbate salt solution
Method: Using the medium (containing 10% FBS) of copepod luciferase secreted from the animal cells, the coelenterazine solution prepared in Example 8 was dissolved at a final concentration of 10 μM or 100 μM, and the resulting solution was mixed with the medium (containing 10% FBS) for the animal cells at 1:1 (volume ratio), and the luminescence for 10 seconds was measured as the background activity. At that time, a reaction solution was 0.1M Tris-HCl pH 7.4/0.3 M, and the effect with or without the addition of 0.3 M […] was examined. The luminescence activity was measured, the ratio of the actually measured value to the self-luminescence (signal to background) was calculated, and collectively shown in FIG. 9. […] This way, the antioxidant has almost no effect on the oxidation reaction by luciferase and could reduce only the background.

## Oc1ccc(Cc2nc3c(Cc4ccccc4)nc(-c4ccc(O)cc4)cn3c2O)cc1 [coelenterazine]
[1]
  half life: widely prolonged
[2]
  self-luminescence (background, RLU): reduction of the self-luminescence
Copepod luciferase
  ratio of the luminescence to the self-luminescence (signal to background): at least two times or more
